Results on 88 compounds are retold here after a melting point compilation (Tetko et al.; mined from patent text by program, amines drawn as free bases though some values may be those of a salt).

SMILES strings stand for the structures.

`CCCCN(Cc1ccccc1)C(=O)Nc1ccc(C)cc1C` registered a melting point of 70 to 71 °C.

As to `CC(=O)c1ccccc1Cc1ccccc1`, the melting point lay within 42 to 43 °C. The result for `CCOC(=O)C1(C(=O)Nc2ccc(Br)cc2C)CCCC1` reads 64 to 67 °C. `COc1ccc2c(C(=O)c3ccc(OC4CCCC4N4CCCCC4)cc3)c(-c3ccc(OCCN4CCCC4)cc3)sc2c1` (stereo not drawn) came in with a melting point of 68 to 72 °C. With `COc1ccncc1-c1nc2c(N[C@H]3[C@@H](C(N)=O)[C@@H]4C=C[C@H]3C4)c(Br)cnc2[nH]1`, the melting point is 160 °C. The result for `C[C@H](CSC(=O)c1ccccc1)C(=O)N1C(c2cccs2)SC[C@H]1C(=O)O` (stereo partly drawn) reads 136 to 137 °C. Take `O=C(C=Cc1ccc(C(F)(F)F)cc1-c1nccs1)Nc1ccc2[nH]ccc2c1`: the melting point was in the range of 203 to 204 °C. Then `Nc1ccc(O)c(CSCCO)c1`, with 121 °C. The result for `Cc1ccc(S(=O)(=O)N(c2ccc(Cl)cc2C#N)C(C)C)cc1` reads 130 °C; that for `CCCCN1C(=O)[C@@H]2[C@H](C1=O)[C@H](c1ccc(C#N)cc1)N(C(C)=O)[C@H]2C` (racemic), 140 to 141 °C. `O=c1oc2c(c(O)c1C(c1ccccc1)C1CC1)CCCCC2C(O)C1CC1` (stereo not drawn): the melting point lay in the range of 88 to 90 °C. `O=C1C=CC(=O)c2cc(C(F)(F)F)ccc21` yielded a melting point of 80 to 85 °C. `CCOC(=O)c1c(C)nc(S)c([N+](=O)[O-])c1NCCCN(C)C` came in with a melting point of 131 to 132 °C. The result for `CC(=O)c1ccc2c(c1)Cc1cc(C#N)ccc1-2` reads 182 to 188 °C; that for `COC(=O)CC(=O)c1ccc2c(c1)CCC(=O)N2C`, 175 to 176 °C. Compound `Cc1nc(-c2ccc3c(c2)c2cc(-c4ccc(Cl)cc4Cl)c(=O)n(C)c2n3C)co1` showed a melting point of 222 to 223 °C. Then `Cc1ccc(C(=S)c2ccc3n2CCCC3C(=O)O)cc1` (stereo not drawn), with 174 to 175 °C. The result for `CC(=O)Nc1ccc(OC(C)=O)c(C(=O)O)c1` reads 196 to 198 °C.

As to `Cc1cccc(Cn2cc(C(=O)C(=O)NC3=CC(=O)OC3)c3ccccc32)c1`, the melting point was 298 to 300 °C. The result for `Cc1cc(C2=Nn3cnnc3SC2c2ccc(F)cc2)nc2c1OCC(=O)N2` (stereo not drawn) reads 256 to 257 °C; that for `CC(=O)OC(c1ccccc1)C1C(=O)NC1S(C)(=O)=O` (mixture of isomers), 178 to 182 °C; that for `OC[C@H]1C[C@H]2CN(c3ncc(F)cn3)CCN2C1`, 123 to 124 °C. With `COc1cc(OC)nc(Oc2cccc(Oc3nc(OC)cc(OC)n3)c2C(=O)OCc2ccccc2)n1`, the melting point lay within 130 to 132 °C. Then `COc1nc2ccccn2c(=O)c1-c1ccc(Cl)cc1`, with 149 to 151 °C; and `O=C(NCC1CCN(CC2(C(=O)O)CCC2)CC1)N1C(=O)C2(CCCC2)c2ccc(F)cc21`, with 150 °C; and `Cc1cc(=O)n(-c2cc(C(=O)OC(C)C)c(Cl)cc2F)c(=O)n1C(F)F`, with 90 to 93 °C. The result for `NC(=O)c1ccc(N2CCN(Cc3cn4cc(Cl)ccc4n3)CC2)c(F)c1` reads 253 to 255 °C; that for `CCC1NC(=O)N(c2ccccc2)C(=O)N1OC(C)=O` (stereo not drawn), 128 to 130 °C. Then `O=CC(=CCl)c1ccc(Cl)cc1`, with 38 °C; and `COc1cc2c(C)c(C#N)c(SC)nc2cc1OC(C)=O`, with 225 to 230 °C; and `CC(C)c1c(CO)c(-c2ccc(F)cc2)n2ccccc12`, with 94 to 95 °C. The compound `COC(=O)CSc1cc(NC(=S)N2CCCN2)c(F)cc1Cl` yielded a melting point of 137 to 141 °C. The result for `Cc1nc2c(N)nc3cccnc3c2n1CC1(O)CCNCC1` reads over 260 °C; that for `O=C(O)CC1CCCCc2c1c1cc(F)ccc1n2Cc1ccc(Cl)cc1` (stereo not drawn), 138 to 139 °C; that for `NCC1Cc2cccc(-c3ccc(F)c(Cl)c3)c2O1` (stereo not drawn), over 210 °C.

For the compound `C(=C\c1nc2ccccc2n1-c1ccccn1)/c1ccoc1`, the melting point is 162 to 164 °C. Then `CC1(C)C(=O)Nc2ccc(-c3cc(F)cc(Cl)c3)cc21`, with 206 to 207 °C. The result for `CC(=O)Oc1ccccc1C(=O)N1CC(O)C[C@H]1C(=O)O` (stereo partly drawn) reads 175 °C; that for `CC(C)(C)OC(=O)N1CCC2(CC1)CC(c1ccc(C(C)(C)C)cc1)=NO2`, 172 to 173 °C; that for `C=C(CN(C)C)C(O)c1ncc2c(c1O)COC2c1ccc(OC)cc1` (stereo not drawn), 169 to 170 °C.

Compound `CCCNC(=O)N1N=C(c2ccc(N)cc2)c2cc(Cl)ccc2CC1C` (stereo not drawn) returned a melting point of 88 to 90 °C. The result for `COc1ccc(-c2c(Cl)c(CN3C(=O)CCC3=O)nc3sc4c(c23)CCNC4)cc1` reads 225 to 226 °C. The result for `COC(OC)c1c(SC(F)(F)F)c(C#N)nn1-c1c(Cl)cc(C(F)(F)F)cc1Cl` reads 93 °C; that for `Cc1nc(C)c(Cl)c(NCc2ccc(OCc3ccccc3)cn2)n1`, 130 to 131 °C; that for `O=S1(=O)NC[C@@H](O)c2cc(Cl)sc21`, 126 to 127 °C.

Compound `CC(N)Cn1ncc2ccc3oc(C(=O)NCC(C)O)cc3c21` (stereo not drawn) yielded a melting point of 190 to 191 °C.

In turn, `CC1(C)C(=O)N(c2ccc(C#N)c(C(F)(F)F)c2)C(=O)N1Cc1ccccc1Br` displayed a melting point of 56 to 58 °C.

Consider `CCCCc1oc2ccccc2c1C(=O)c1ccc(O)cc1`, for which the melting point was found to be 119 °C. Then `COCCC(=O)OCC(=O)C1(O)CCC2C3CC(C)C4=CC(=O)C=CC4(C)C3C(O)CC21C` (stereo not drawn), with 230 °C. The result for `Cc1cccc(OCCOS(N)(=O)=O)c1` reads 76 to 78 °C; that for `CC1(C)Oc2ccc(OC(F)(F)F)cc2[C@@H](NC(=O)c2ccccc2[N+](=O)[O-])[C@@H]1O`, 189 to 190 °C. Then `CC(C)c1ccc2nc3ccc(C(=O)NCCCCn4ccnc4)cn3c(=O)c2c1`, with 165 to 167 °C; and `Cc1ccc2ncn(C3CCC(=O)NC3=O)c(=O)c2c1` (stereo not drawn), with 285 to 287 °C; and `O=C([C@@H]1CCCN1C(=O)CC1CCc2ccccc2C1)N1CCCC1` (stereo partly drawn), with 104 to 106 °C. `O=C1NS(=O)(=O)c2cc(O)cc(O)c21` displayed a melting point of 286 °C. Then `Nc1ccccc1C(=O)Nc1cc2c(cc1F)OCC(=O)N2`, with 251 to 252 °C. Then `CN(C)CC(=O)Nc1cccc2c1C(=O)c1c-2n[nH]c1-c1ccc(N2CCNCC2)cc1`, with 243 °C; and `CN(C)CCCOc1ccc(-c2nn(CC(=O)O)c3ncccc23)cc1`, with 221 to 223 °C.

Regarding `CCC(=O)NCC1CCN(CCOc2ccccc2)CC1`, the melting point lay in the range of 85 to 86 °C.

For `CC(C)(C)OC(=O)Nc1ccc(-c2cccc(F)c2)cc1NC(=O)CC(=O)c1cccc(C#N)c1`, the melting point was in the range of 148 to 150 °C. Then `O=C1Nc2cccc(C(F)(F)F)c2C(=O)N2CCC[C@@H]12`, with 176 to 178 °C. The result for `COc1ccc2nc(OC)cc(CCNC(C)=O)c2c1` reads 119 to 121 °C.

In the case of `C=Cc1cnc(C)c(O)c1CS`, the melting point lay in the range of 198 to 200 °C. The compound `CCCCCCCCCCN1C(=O)C2CC2(c2ccc(N)cc2)C1=O` (stereo not drawn) displayed a melting point of 92 to 94 °C. The result for `CCOC(=O)c1cn(-c2ccc(F)cc2F)c2c(F)c(F)c(F)c(F)c2c1=O` reads 160 to 162 °C. `O=C1Cc2c(cccc2C(=O)O)Sc2ccccc21` displayed a melting point of 230 to 232 °C. Take `CCOc1cc2c(Cl)ccnc2nc1C`: the melting point is 164 °C. Compound `O=C1C=CC(O)(c2cnc3ccccc3c2)C=C1` yielded a melting point of 183 to 184 °C.

For `N#CC(C#N)=CN(N=C(C#N)C#N)c1ccc(Cl)cc1`, the melting point was 161 to 162 °C. Then `O=C(c1cc2ccccc2o1)c1ccc(O)c(Cl)c1Cl`, with 163 °C. The result for `O=P(O)(O)CC(O)CNO` (stereo not drawn) reads 153 to 155 °C; that for `CCCCc1nc2c(N)nc3ccccc3c2n1CCCCS(C)=O` (stereo not drawn), 126 to 128 °C; that for `CCCC[C@H](NC(=O)[C@H](Cc1ccccc1)NC(=O)OCc1ccccc1)C(=O)CSCc1ccco1`, 123 to 124 °C.

The compound `C#CCN(Cc1cc2c(=O)n(C)c(CN3CCN(c4ccccc4)CC3)nc2cc1Cl)c1ccc(C(=O)OC(C)(C)C)cc1` came in with a melting point of over 95 °C. The result for `CCCn1nc(C(C)C)c(C(=O)OCC)c1Cc1ccc(-c2ccccc2S(=O)(=O)NC(=O)c2ccccc2)cc1` reads 159 to 160 °C; that for `CCCCCCCCC(CCCCCCCC)N1C(=O)c2ccc3c4cccc5cccc(c6ccc(c2c36)C1=O)c54`, 143 to 144 °C. Then `Cn1c(C(F)(F)F)cc(=O)n(Cc2cc(I)cc(Cl)c2Cl)c1=O`, with 142 to 144 °C. The result for `COc1ccc2c(c1)c1c3c(c(-c4c(Cl)cccc4OC)cc1n2CCO)C(=O)NC3=O` reads 264 to 268 °C; that for `COCCNCc1ccccc1Oc1ccc(-c2cn(C3CCOC3)c3ncnc(N)c23)cc1` (stereo not drawn), 66 to 68 °C.

Compound `CCOC(=O)Nc1coc2cc(OCc3ccccc3)ccc12` yielded a melting point of 140 °C. Compound `CNC(=O)c1ccccc1-c1cc(C)no1` had a melting point of 120 to 122 °C.

`CN1C(=O)C(NC(=O)NCc2ccccc2)N=C(c2ccccc2)c2ccccc21` (stereo not drawn) showed a melting point of 240 to 242 °C. Compound `CC(=O)Oc1c(C2CCN(CCCCNC(=O)c3ccc(-c4ccc(C#N)cc4)cc3)CC2)ccc2c1CCCC2` displayed a melting point of 140 to 150 °C.

Take `CCCOc1ccc(OCCCCC(=O)O)c(C=O)c1O`: the melting point fell in the range of 78 to 79 °C. The result for `Cc1cc(NS(=O)(=O)c2cccc(S(=O)(=O)Nc3cc(C)c(S(=O)(=O)C[N+](=O)[O-])c(C)c3)c2)cc(C)c1S(=O)(=O)C[N+](=O)[O-]` reads 191 to 192 °C. Take `N#COc1ccc(C=CC(=O)c2ccc(OC#N)cc2)cc1`: the melting point was in the range of 171 to 173 °C. On to `O=CC(=Cc1cccc(OCc2ccccc2)c1)C(C=O)=Cc1cccc(OCc2ccccc2)c1`, for which the melting point lay in the range of 126 to 127 °C. Then `Cc1nc(-n2cc(-c3ccsc3)nn2)sc1C(=O)NCc1ccccc1`, with 123 to 126 °C.
